Measurements from patent publication US8487108B2, “Piperidinyl carbamate intermediates for the synthesis of aspartic protease inhibitors” (Vitae Pharmaceuticals, Inc., priority 2005, dated 2013).

Target: T1, trypsin-activated recombinant human renin (Homo sapiens, UniProt P00797)
T1 sequence (P00797 67-406): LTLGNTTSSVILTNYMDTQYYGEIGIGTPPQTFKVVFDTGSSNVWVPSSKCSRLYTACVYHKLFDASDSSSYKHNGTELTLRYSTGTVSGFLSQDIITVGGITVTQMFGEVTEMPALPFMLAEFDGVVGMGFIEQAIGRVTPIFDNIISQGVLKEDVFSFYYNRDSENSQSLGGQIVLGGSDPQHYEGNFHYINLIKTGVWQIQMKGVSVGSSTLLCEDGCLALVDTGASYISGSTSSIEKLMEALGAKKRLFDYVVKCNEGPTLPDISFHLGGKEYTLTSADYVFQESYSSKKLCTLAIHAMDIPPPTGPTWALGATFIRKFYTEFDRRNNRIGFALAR
Test: Renin fluorescence assay (internally quenched peptide substrate)
Assay type: biochemical
Conditions: compounds I*
Procedure, shortened: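 Compounds (1 nM–10 μM final, DMSO) were mixed with internally quenched angiotensinogen-sequence substrate in pH 7.0 BES/NaCl/BSA buffer, then 0.2-2 nM trypsin-activated human renin added. Rate from the linear fluorescence increase (340 nm excitation, 495 nm emission) over 60-360 min at rt, compared with uninhibited control.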

Q: With `CNC[C@@H](CC1(C)CCCCC1)NC(=O)N1CCC[C@@H]([C@@H](OCCNC(=O)OC)c2cc(F)cc(F)c2)C1` [I*-94a, methyl 2-((R)-(3,5-difluorophenyl)((R)-1-((R)-1-(methylamino)-3-(1-methylcyclohexyl)propan-2-ylcarbamoyl)piperidin-3-yl)methoxy)ethylcarbamate] as the compound, how does the IC50 read?
A: > 0.05 µM

Q: For `CNC[C@H](C[C@H]1CCC(C)(C)OC1)NC(=O)N1CCC[C@@H]([C@@H](OCCNC(=O)OC)c2ccccc2)C1` [I*-156a, methyl 2-((R)—((R)-1-((S)-1-((R)-6,6-dimethyl-tetrahydro-2H-pyran-3-yl)-3-(methylamino)propan-2-ylcarbamoyl)piperidin-3-yl)(phenyl)methoxy)ethylcarbamate], which IC50 is on record?
A: < 0.02 µM

Q: How did the IC50 turn out when `COC(=O)NCCO[C@@H](c1cc(F)ccc1C)[C@@H]1CCCN(C(=O)NC[C@@H](N)C[C@H]2CCCCOC2)C1` [I*-58a, methyl 2-((R)-((R)-1-((S)-2-amino-3-((R)-oxepan-3-yl)propylcarbamoyl)piperidin-3-yl)(5-fluoro-2-methylphenyl)methoxy)ethylcarbamate] was run?
A: < 0.01 µM

Q: `CNC[C@H](CCC1(OC)CCCC1)NC(=O)N1CCC[C@@H]([C@@H](OCCNC(=O)OC)c2cccc(F)c2)C1` [I*-78a, methyl 2-((R)-(3-fluorophenyl)((R)-1-((S)-4-(1-methoxycyclopentyl)-1-(methylamino)butan-2-yl-carbamoyl)piperidin-3-yl)methoxy)ethylcarbamate] was tested. Which IC50 did it give?
A: > 0.05 µM

Q: With `CNC[C@H](CC1CCOCC1)NC(=O)N1CCC[C@@H]([C@@H](OCCNC(=O)OC)c2cc(C)ccc2C)C1` [I*-37a, methyl 2-((R)-(2,5-dimethylphenyl)((R)-1-((S)-1-(methylamino)-3-(tetrahydro-2H-pyran-4-yl)propan-2-ylcarbamoyl)piperidin-3-yl)methoxy)ethylcarbamate] as the compound, how does the IC50 read?
A: < 0.02 µM

Q: `CNC[C@H](CC1CCCCC1)N/C(=N\C#N)N1CCC[C@@H]([C@@H](OCCNC(=O)OC)c2cccc(Cl)c2)C1` [I*-127a, methyl 2-((R)-(3-chlorophenyl)((R)-1-(N′-cyano-N—((S)-1-cyclohexyl-3-(methylamino)propan-2-yl)carbamimidoyl)piperidin-3-yl)methoxy)ethylcarbamate] was tested. Which IC50 did it give?
A: < 0.02 µM

Q: Which IC50 does the source give for `CNC[C@H](CC1CCCCC1)NC(=O)N1CCC[C@@H]([C@@H](OCCNC(=O)OC)c2cc(F)ccc2F)C1` [I*-63a, methyl 2-((R)-((R)-1-((S)-1-cyclohexyl-3-(methylamino)propan-2-ylcarbamoyl)piperidin-3-yl)(2,5-difluorophenyl)methoxy)ethylcarbamate] here?
A: < 0.001 µM

Q: How did the IC50 turn out when `CC[C@@H](N)[C@H](CC1CCCCC1)NC(=O)N1CCC[C@@H]([C@@H](OCCNC(=O)OC)c2cccc(Cl)c2)C1` [I*-83a, methyl 2-((R)-((R)-1-((2S,3R)-3-amino-1-cyclohexylpentan-2-ylcarbamoyl)piperidin-3-yl)(3-chlorophenyl)methoxy)ethylcarbamate] was run?
A: < 0.001 µM

Q: How did the IC50 turn out when `CNCC(CC12CCC(CC1)CC2)NC(=O)N1CCC[C@@H]([C@@H](OCCNC(=O)OC)c2cccc(Cl)c2)C1` (stereo partly drawn) [I*-129a, methyl 2-((R)-((3R)-1-(1-(bicyclo[2.2.2]octan-1-yl)-3-(methylamino)propan-2-ylcarbamoyl)piperidin-3-yl)(3-chlorophenyl)methoxy)ethylcarbamate] was run?
A: > 0.05 µM

Q: For `CNC[C@H](CC1CCCCC1)NC(=O)N1CCC[C@@H]([C@@H](OCCNc2nccs2)c2cccc(Cl)c2)C1` [I*-128a, (R)-3-((R)-(3-chlorophenyl)(2-(thiazol-2-ylamino)ethoxy)methyl)-N-((S)-1-cyclohexyl-3-(methylamino)propan-2-yl)piperidine-1-carboxamide], which IC50 is on record?
A: > 0.05 µM

Q: Which IC50 does the source give for `CNC[C@H](CC1CCOCC1)NC(=O)N1CCCC([C@@H](OCCNC(=O)OC)c2c(C)ccc(F)c2F)C1` (stereo partly drawn) [I*-115a, methyl 2-((R)-(2,3-difluoro-6-methylphenyl)(1-((S)-1-(methylamino)-3-(tetrahydro-2H-pyran-4-yl)propan-2-ylcarbamoyl)piperidin-3-yl)methoxy)ethylcarbamate] here?
A: < 0.01 µM
